Assay results: patent publication US20170058314A1, “NOVEL METHODOLOGY FOR IDENTIFYING ANTI-PERSISTER ACTIVITY AND ANTIMICROBIAL SUSCEPTIBILITY FOR BORRELIA BURGDORFERI AND OTHER BACTERIA” (priority 2014, published 2017)
Structures can show the parent of a compound that is named as a salt.

How the values were obtained:
[1] = system: stationary phase B. burgdorferi persisters (strain B31); assay: SYBR Green I/PI viability assay (plate reader), FDA-approved drug library screen; conditions: for Ratio of Green/Red fluorescence, Primary screening / Ratio of Green/Red fluorescence, Rescreening (first column) / Ratio of Green/Red fluorescence, Rescreening (second column): 50 μM, 7 days, stationary phase; for viability at 50 µM: Borreliella burgdorferi, 168 h, read-out: Residual viable cells (regression equation, SYBR Green I/PI assay); for activity against stationary phase B. burgdorferi (words; SYBR Green I/PI assay): FDA drug screen
[2] = system: round body form of B. burgdorferi; assay: SYBR Green I/PI assay on amoxicillin-induced round body form; conditions: for viability at 50 µM: Borreliella burgdorferi, 168 h, read-out: Residual viable cells (SYBR Green I/PI assay); for Ratios of green/red fluorescence, Primary screening / Ratios of green/red fluorescence, Rescreening (first column) / Ratios of green/red fluorescence, Rescreening (second column): round body form, 50 μM, 7 days

SMILES	Ratio of Green/Red fluorescence, Primary screening [1]	Ratio of Green/Red fluorescence, Rescreening (first column) [1]	Ratio of Green/Red fluorescence, Rescreening (second column) [1]	viability at 50 µM [1] [%]	viability at 50 µM [2] [%]	Ratios of green/red fluorescence, Primary screening [2]	Ratios of green/red fluorescence, Rescreening (first column) [2]	Ratios of green/red fluorescence, Rescreening (second column) [2]	activity against stationary phase B. burgdorferi (words; SYBR Green I/PI assay) [1]
C=C[C@H]1C[N@@]2CC[C@H]1C[C@H]2[C@H](O)c1ccnc2ccc(OC)cc12 [Quinine hydrobromide]	7.00	6.85	6.88	50					
CN(C)[C@@H]1C(O)=C(C(N)=O)C(=O)[C@@]2(O)C(O)=C3C(=O)c4c(O)ccc(Cl)c4[C@@](C)(O)[C@H]3C[C@@H]12 [Chlortetracycline]					31	6.20	6.36	6.18	
CC(C)(O/N=C(\C(=O)N[C@@H]1C(=O)N2C(C(=O)[O-])=C(C[n+]3ccccc3)CS[C@H]12)c1csc(N)n1)C(=O)O [Ceftazidime]					34	6.20	6.34	6.37	
CCS(=O)(=O)CCn1c([N+](=O)[O-])cnc1C [Tinidazole]					33	6.24	6.21	6.36	
Cc1noc(NS(=O)(=O)c2ccc(N)cc2)c1C [Sulfisoxazole]					33	6.53	6.15	6.18	effective
Cn1nnnc1SCC1=C(C(=O)O)N2C(=O)[C@@H](NC(=O)[C@H](O)c3ccccc3)[C@H]2SC1 [Cefamandole]	6.71	7.73	6.52	50					
CC1(C)S[C@@H]2[C@H](NC(=O)[C@H](C(=O)O)c3ccsc3)C(=O)N2[C@H]1C(=O)O [Ticarcillin]	6.82	6.72	6.93	46					
Nc1ccc(S(=O)(=O)Nc2nccs2)cc1 [Sulfathiazole]					31	6.38	6.18	6.17	
O=C(O)C1=C(CSc2nnnn2CS(=O)(=O)O)CS[C@@H]2[C@H](NC(=O)[C@H](O)c3ccccc3)C(=O)N12 [Cefonicid]	6.86	7.54	6.07	46					
CCn1cc(C(=O)O)c(=O)c2cc(F)c(N3CCNCC3)cc21 [norfloxacin]					41				
CCN(CC)Cc1cc(Nc2ccnc3cc(Cl)ccc23)ccc1O [Amodiaquin]	6.79	6.44	6.85	45					
CN[C@@H]1[C@@H](O)[C@@H](O[C@@H]2[C@@H](O)[C@H](O[C@H]3OC(CN)=CC[C@H]3N)[C@@H](N)C[C@H]2N)OC[C@]1(C)O [Sisomicin]					33	6.27	6.12	6.45	
COc1ccc(NS(=O)(=O)c2ccc(N)cc2)nn1 [Sulfamethoxypyridazine]					30	6.20	6.07	6.34	
COc1cnc(NS(=O)(=O)c2ccc(N)cc2)nc1 [Sulfameter]	7.13	7.46	6.98	54					effective
CC(=O)NS(=O)(=O)c1ccc(N)cc1 [Sulfacetamide]					29	6.26	6.14	6.20	
C=CC1=C(C(=O)O)N2C(=O)[C@@H](NC(=O)/C(=N\OCC(=O)O)c3csc(N)n3)[C@H]2SC1 [Cefixime]					34	6.41	6.21	6.27	
